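Where inhibition never reached the appropriate level, the endpoint shown equals the highest concentration tested. Otherwise, values were interpolated linearly from a five-concentration, 48-hour dose response in 96-well plates. The concentration for full growth arrest is given as TGI.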
test system: 786-0 renal; test: inhibition of tumour cell growth, NCI panel, 48 h

Structure (SMILES) | TGI
COC(=O)C1CC(C=[N+](C)C)=C(SC)N1 (configuration not stated) | > 100 µM
Brc1ccc2c3c1[C@@H]1O[C@@H]1c1cccc(c1-3)[C@@H]1O[C@H]21 | 51.1 µM
O=C(O)Cc1ccc2nc(COC(=O)c3ccccc3)sc2c1 | > 100 µM
N#CC(C#N)=C1CCCS(=O)(=O)c2ccccc21 | > 100 µM
O=c1c2cc(I)ccc2[nH]c(=S)n1Cc1ccccc1 | 63 µM
CCOC(=O)c1cnc2[nH]ccn2c1=O | > 10 µM
Cc1cccc(C[C@@]2(SCc3ccccc3)C(C)(C)[C@@H]3CC[C@@]2(C)C3)n1 | 35.5 µM

test system: A498 renal; test: inhibition of tumour cell growth, NCI panel, 48 h

Structure (SMILES) | TGI
COC(=O)C1CC(C=[N+](C)C)=C(SC)N1 (configuration not stated) | > 100 µM
Brc1ccc2c3c1[C@@H]1O[C@@H]1c1cccc(c1-3)[C@@H]1O[C@H]21 | > 69.1 µM
O=C(O)Cc1ccc2nc(COC(=O)c3ccccc3)sc2c1 | > 100 µM
N#CC(C#N)=C1CCCS(=O)(=O)c2ccccc21 | > 100 µM
O=c1c2cc(I)ccc2[nH]c(=S)n1Cc1ccccc1 | 54.3 µM
CCOC(=O)c1cnc2[nH]ccn2c1=O | > 10 µM
Cc1cccc(C[C@@]2(SCc3ccccc3)C(C)(C)[C@@H]3CC[C@@]2(C)C3)n1 | 28.6 µM

test system: A549 NSCLC; test: inhibition of tumour cell growth, NCI panel, 48 h

Structure (SMILES) | TGI
Brc1ccc2c3c1[C@@H]1O[C@@H]1c1cccc(c1-3)[C@@H]1O[C@H]21 | > 92.1 µM
O=C(O)Cc1ccc2nc(COC(=O)c3ccccc3)sc2c1 | > 100 µM
N#CC(C#N)=C1CCCS(=O)(=O)c2ccccc21 | > 100 µM
O=c1c2cc(I)ccc2[nH]c(=S)n1Cc1ccccc1 | > 100 µM
CCOC(=O)c1cnc2[nH]ccn2c1=O | > 10 µM
Cc1cccc(C[C@@]2(SCc3ccccc3)C(C)(C)[C@@H]3CC[C@@]2(C)C3)n1 | 51.1 µM

test system: ACHN renal; test: inhibition of tumour cell growth, NCI panel, 48 h

Structure (SMILES) | TGI
COC(=O)C1CC(C=[N+](C)C)=C(SC)N1 (configuration not stated) | > 100 µM
Brc1ccc2c3c1[C@@H]1O[C@@H]1c1cccc(c1-3)[C@@H]1O[C@H]21 | 67.1 µM
O=C(O)Cc1ccc2nc(COC(=O)c3ccccc3)sc2c1 | > 100 µM
N#CC(C#N)=C1CCCS(=O)(=O)c2ccccc21 | > 100 µM
O=c1c2cc(I)ccc2[nH]c(=S)n1Cc1ccccc1 | > 100 µM
CCOC(=O)c1cnc2[nH]ccn2c1=O | > 10 µM
Cc1cccc(C[C@@]2(SCc3ccccc3)C(C)(C)[C@@H]3CC[C@@]2(C)C3)n1 | 28.8 µM

test system: BT-549 breast; test: inhibition of tumour cell growth, NCI panel, 48 h

Structure (SMILES) | TGI
COC(=O)C1CC(C=[N+](C)C)=C(SC)N1 (configuration not stated) | > 100 µM
Brc1ccc2c3c1[C@@H]1O[C@@H]1c1cccc(c1-3)[C@@H]1O[C@H]21 | 43.2 µM
O=C(O)Cc1ccc2nc(COC(=O)c3ccccc3)sc2c1 | > 100 µM
N#CC(C#N)=C1CCCS(=O)(=O)c2ccccc21 | > 100 µM
O=c1c2cc(I)ccc2[nH]c(=S)n1Cc1ccccc1 | 44.6 µM
CCOC(=O)c1cnc2[nH]ccn2c1=O | > 10 µM
Cc1cccc(C[C@@]2(SCc3ccccc3)C(C)(C)[C@@H]3CC[C@@]2(C)C3)n1 | 42.6 µM

test system: CAKI-1 renal; test: inhibition of tumour cell growth, NCI panel, 48 h

Structure (SMILES) | TGI
COC(=O)C1CC(C=[N+](C)C)=C(SC)N1 (configuration not stated) | > 100 µM
Brc1ccc2c3c1[C@@H]1O[C@@H]1c1cccc(c1-3)[C@@H]1O[C@H]21 | 26.4 µM
O=C(O)Cc1ccc2nc(COC(=O)c3ccccc3)sc2c1 | > 100 µM
N#CC(C#N)=C1CCCS(=O)(=O)c2ccccc21 | > 100 µM
CCOC(=O)c1cnc2[nH]ccn2c1=O | > 10 µM
Cc1cccc(C[C@@]2(SCc3ccccc3)C(C)(C)[C@@H]3CC[C@@]2(C)C3)n1 | 48.1 µM

test system: CCRF-CEM leukemia; test: inhibition of tumour cell growth, NCI panel, 48 h

Structure (SMILES) | TGI
Brc1ccc2c3c1[C@@H]1O[C@@H]1c1cccc(c1-3)[C@@H]1O[C@H]21 | > 100 µM
N#CC(C#N)=C1CCCS(=O)(=O)c2ccccc21 | > 100 µM
O=c1c2cc(I)ccc2[nH]c(=S)n1Cc1ccccc1 | 23.1 µM
CCOC(=O)c1cnc2[nH]ccn2c1=O | > 10 µM
Cc1cccc(C[C@@]2(SCc3ccccc3)C(C)(C)[C@@H]3CC[C@@]2(C)C3)n1 | 27.6 µM

test system: COLO 205 colon; test: inhibition of tumour cell growth, NCI panel, 48 h

Structure (SMILES) | TGI
COC(=O)C1CC(C=[N+](C)C)=C(SC)N1 (configuration not stated) | > 100 µM
Brc1ccc2c3c1[C@@H]1O[C@@H]1c1cccc(c1-3)[C@@H]1O[C@H]21 | 52.2 µM
O=C(O)Cc1ccc2nc(COC(=O)c3ccccc3)sc2c1 | > 100 µM
N#CC(C#N)=C1CCCS(=O)(=O)c2ccccc21 | > 100 µM
O=c1c2cc(I)ccc2[nH]c(=S)n1Cc1ccccc1 | > 100 µM
CCOC(=O)c1cnc2[nH]ccn2c1=O | > 10 µM
Cc1cccc(C[C@@]2(SCc3ccccc3)C(C)(C)[C@@H]3CC[C@@]2(C)C3)n1 | 29 µM

test system: DU-145 prostate; test: inhibition of tumour cell growth, NCI panel, 48 h

Structure (SMILES) | TGI
COC(=O)C1CC(C=[N+](C)C)=C(SC)N1 (configuration not stated) | > 100 µM
Brc1ccc2c3c1[C@@H]1O[C@@H]1c1cccc(c1-3)[C@@H]1O[C@H]21 | > 72.5 µM
O=C(O)Cc1ccc2nc(COC(=O)c3ccccc3)sc2c1 | > 100 µM
N#CC(C#N)=C1CCCS(=O)(=O)c2ccccc21 | > 100 µM
O=c1c2cc(I)ccc2[nH]c(=S)n1Cc1ccccc1 | > 100 µM
CCOC(=O)c1cnc2[nH]ccn2c1=O | > 10 µM
Cc1cccc(C[C@@]2(SCc3ccccc3)C(C)(C)[C@@H]3CC[C@@]2(C)C3)n1 | 32.2 µM

test system: EKVX NSCLC; test: inhibition of tumour cell growth, NCI panel, 48 h

Structure (SMILES) | TGI
COC(=O)C1CC(C=[N+](C)C)=C(SC)N1 (configuration not stated) | > 100 µM
Brc1ccc2c3c1[C@@H]1O[C@@H]1c1cccc(c1-3)[C@@H]1O[C@H]21 | 39.4 µM
O=C(O)Cc1ccc2nc(COC(=O)c3ccccc3)sc2c1 | > 100 µM
N#CC(C#N)=C1CCCS(=O)(=O)c2ccccc21 | > 100 µM
O=c1c2cc(I)ccc2[nH]c(=S)n1Cc1ccccc1 | 35.4 µM
CCOC(=O)c1cnc2[nH]ccn2c1=O | > 10 µM
Cc1cccc(C[C@@]2(SCc3ccccc3)C(C)(C)[C@@H]3CC[C@@]2(C)C3)n1 | 40.2 µM

test system: HCC-2998 colon; test: inhibition of tumour cell growth, NCI panel, 48 h

Structure (SMILES) | TGI
COC(=O)C1CC(C=[N+](C)C)=C(SC)N1 (configuration not stated) | > 100 µM
O=C(O)Cc1ccc2nc(COC(=O)c3ccccc3)sc2c1 | > 100 µM
N#CC(C#N)=C1CCCS(=O)(=O)c2ccccc21 | > 100 µM
O=c1c2cc(I)ccc2[nH]c(=S)n1Cc1ccccc1 | > 100 µM
Cc1cccc(C[C@@]2(SCc3ccccc3)C(C)(C)[C@@H]3CC[C@@]2(C)C3)n1 | 28.8 µM

test system: HCT-116 colon; test: inhibition of tumour cell growth, NCI panel, 48 h

Structure (SMILES) | TGI
COC(=O)C1CC(C=[N+](C)C)=C(SC)N1 (configuration not stated) | > 100 µM
Brc1ccc2c3c1[C@@H]1O[C@@H]1c1cccc(c1-3)[C@@H]1O[C@H]21 | 45.7 µM
O=C(O)Cc1ccc2nc(COC(=O)c3ccccc3)sc2c1 | > 100 µM
N#CC(C#N)=C1CCCS(=O)(=O)c2ccccc21 | > 100 µM
O=c1c2cc(I)ccc2[nH]c(=S)n1Cc1ccccc1 | > 100 µM
CCOC(=O)c1cnc2[nH]ccn2c1=O | > 10 µM
Cc1cccc(C[C@@]2(SCc3ccccc3)C(C)(C)[C@@H]3CC[C@@]2(C)C3)n1 | 31.9 µM

test system: HCT-15 colon; test: inhibition of tumour cell growth, NCI panel, 48 h

Structure (SMILES) | TGI
COC(=O)C1CC(C=[N+](C)C)=C(SC)N1 (configuration not stated) | > 100 µM
Brc1ccc2c3c1[C@@H]1O[C@@H]1c1cccc(c1-3)[C@@H]1O[C@H]21 | 49.8 µM
O=C(O)Cc1ccc2nc(COC(=O)c3ccccc3)sc2c1 | > 100 µM
N#CC(C#N)=C1CCCS(=O)(=O)c2ccccc21 | > 100 µM
O=c1c2cc(I)ccc2[nH]c(=S)n1Cc1ccccc1 | > 100 µM
CCOC(=O)c1cnc2[nH]ccn2c1=O | > 10 µM
Cc1cccc(C[C@@]2(SCc3ccccc3)C(C)(C)[C@@H]3CC[C@@]2(C)C3)n1 | 26.8 µM

test system: HL-60(TB) leukemia; test: inhibition of tumour cell growth, NCI panel, 48 h

Structure (SMILES) | TGI
Brc1ccc2c3c1[C@@H]1O[C@@H]1c1cccc(c1-3)[C@@H]1O[C@H]21 | 66.5 µM
N#CC(C#N)=C1CCCS(=O)(=O)c2ccccc21 | > 100 µM
O=c1c2cc(I)ccc2[nH]c(=S)n1Cc1ccccc1 | 28.5 µM
CCOC(=O)c1cnc2[nH]ccn2c1=O | > 10 µM
Cc1cccc(C[C@@]2(SCc3ccccc3)C(C)(C)[C@@H]3CC[C@@]2(C)C3)n1 | 29.7 µM

test system: HOP-62 NSCLC; test: inhibition of tumour cell growth, NCI panel, 48 h

Structure (SMILES) | TGI
COC(=O)C1CC(C=[N+](C)C)=C(SC)N1 (configuration not stated) | > 100 µM
Brc1ccc2c3c1[C@@H]1O[C@@H]1c1cccc(c1-3)[C@@H]1O[C@H]21 | 43.1 µM
O=C(O)Cc1ccc2nc(COC(=O)c3ccccc3)sc2c1 | > 100 µM
N#CC(C#N)=C1CCCS(=O)(=O)c2ccccc21 | > 100 µM
O=c1c2cc(I)ccc2[nH]c(=S)n1Cc1ccccc1 | 63 µM
CCOC(=O)c1cnc2[nH]ccn2c1=O | > 10 µM
Cc1cccc(C[C@@]2(SCc3ccccc3)C(C)(C)[C@@H]3CC[C@@]2(C)C3)n1 | 60.2 µM

Source: PubChem BioAssay (NCI)
